Data reported in patent US20160362399A1, “ARYL, HETEROARYL, AND HETEROCYCLIC COMPOUNDS FOR TREATMENT OF COMPLEMENT MEDIATED DISORDERS” (Achillion Pharmaceuticals, Inc., priority 2014, published 2016).
Where two headings read alike, the source gives them in different places.

Molecular target: T1, Human factor D (Homo sapiens, UniProt P00746)
T1 construct: purified from human serum; purchased Complement Technology, Inc; host or cells: human serum
Experiment: Human Factor D Assay
Type: biochemical
Experimental: Other standard factor D inhibition assays are also available.
Human factor D (purified from human serum, Complement Technology, Inc.) at 80 nM final concentration is incubated with test compound at various concentrations for 5 minutes at room temperature in 50 mM Tris, 1M NaCl, pH 7.5. A synthetic substrate Z-L-Lys-SBzl and DTNB (Ellman's reagent) are added to final concentrations of 100 μM each. The increase in color is recorded at OD405 nm in a microplate in kinetic mode over 30 minutes with 30 second time points in a spectrofluorimeter. IC50 values are calculated by non-linear regression from the percentage of inhibition of complement factor D activity as a function of test compound concentration.

[1] = human factor D 80 nM, substrate Z-L-Lys-SBzl, assay of Example 7, read-out: IC50

T1 sequence (P00746 26-253): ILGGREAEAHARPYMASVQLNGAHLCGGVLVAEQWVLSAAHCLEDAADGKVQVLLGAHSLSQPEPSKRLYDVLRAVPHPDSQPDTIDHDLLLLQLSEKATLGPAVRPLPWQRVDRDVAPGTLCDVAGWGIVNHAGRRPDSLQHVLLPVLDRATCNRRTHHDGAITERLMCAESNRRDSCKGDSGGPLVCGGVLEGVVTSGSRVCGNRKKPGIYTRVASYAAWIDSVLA

Compound | IC50 [µM] | IC50 [1] [µM]
CC(=O)c1cn(CC(=O)N2C[C@H](F)C[C@H]2C(=O)Nc2cccc(-c3ccccc3Cl)c2F)c2ccc(C3=CCN(C(C)=O)CC3)cc12 [Compound 28, (2S,4R)-1-(2-(3-acetyl-5-(1-acetyl-1,2,3,6-tetrahydropyridin-4-yl)-1H-indol-1-yl)acetyl)-N-(2′-chloro-2-fluorobiphenyl-3-yl)-4-fluoropyrrolidine-2-carboxamide] | < 1 | 
COc1ncc(-c2ccc3c(c2)c(C(N)=O)nn3CC(=O)N2C[C@H](F)C[C@H]2C(=O)Nc2cccc(-c3ccccc3Cl)c2F)cn1 [Compound 29, 1-(2-((2S,4R)-2-(2′-chloro-2-fluorobiphenyl-3-ylcarbamoyl)-4-fluoropyrrolidin-1-yl)-2-oxoethyl)-5-(2-methoxypyrimidin-5-yl)-1H-indazole-3-carboxamide] |  | < 1
NC(=O)c1nn(CC(=O)N2C[C@H](F)C[C@H]2C(=O)Nc2ccccc2-c2nc3ccccc3s2)c2ccc(-c3ccnnc3)cc12 [Compound 41, 1-(2-((2S,4R)-2-(2-(benzo[d]thiazol-2-yl)phenylcarbamoyl)-4-fluoropyrrolidin-1-yl)-2-oxoethyl)-5-(pyridazin-4-yl)-1H-indazole-3-carboxamide] |  | > 10
NC(=O)c1nn(CC(=O)N2C[C@H](F)C[C@H]2C(=O)N[C@@H]2CCC[C@@H]2OCc2ccccc2)c2ccc(-c3ccnnc3)cc12 [Compound 51, 1-(2-((2S,4R)-2-((1R,2S)-2-(benzyloxy)cyclopentylcarbamoyl)-4-fluoropyrrolidin-1-yl)-2-oxoethyl)-5-(pyridazin-4-yl)-1H-indazole-3-carboxamide] | > 10 | 
Cc1nc2sccn2c1-c1csc(NC(=O)[C@@H]2C[C@@H](F)CN2C(=O)Cn2nc(C(N)=O)c3cc(-c4ccnnc4)ccc32)n1 [Compound 58, 1-(2-((2S,4R)-4-fluoro-2-(4-(6-methylimidazo[2,1-b]thiazol-5-yl)thiazol-2-ylcarbamoyl)pyrrolidin-1-yl)-2-oxoethyl)-5-(pyridazin-4-yl)-1H-indazole-3-carboxamide] |  | > 10
CC(=O)c1cn(CC(=O)N2[C@@H]3C[C@@H]3C[C@H]2C(=O)Nc2cccc(Br)n2)c2ccc(-c3cnc(C)nc3)cc12 [Compound 132, (1R,3S,5R)-2-(2-(3-acetyl-5-(2-methylpyrimidin-5-yl)-1H-indol-1-yl)acetyl)-N-(6-bromopyridin-2-yl)-2-azabicyclo[3.1.0]hexane-3-carboxamide] |  | < 1
